The term IC50 denotes the point on the concentration scale where inhibition reaches its midpoint.

Here are results for nine compounds from US10233182B2, “Substituted spirocyclic inhibitors of autotaxin” (X-Rx, Inc., priority 2014, dated 2019).

Structures are written as SMILES.

This test concerns the target Autotaxin (Homo sapiens (Human), UniProt Q13822). The experiment in a line: Autotaxin LPC Cascade Assay. Particulars: Autotaxin 5 nM, LPC 100 μM, choline oxidase/HRP/Ampliflu Red fluorescence read-out, 2% DMSO, RT; read-out: IC50 ATX Activity. Type of test: biochemical. The method, boiled down:
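Choline liberated from LPC by autotaxin during 1 h, after a 10-min RT compound preincubation, was converted through choline oxidase/HRP to a fluorescent Ampliflu Red product.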
Consider `CC(C)[C@@H](NC(=O)c1cc(C(F)(F)F)ccc1F)C(=O)N1CCC2(CC1)C(=O)N(C)C(=O)N2Cc1ccc(Cl)cc1` [Example 99, (R)—N-(1-(1-(4-Chlorobenzyl)-3-methyl-2,4-dioxo-1,3,8-triazaspiro[4.5]decan-8-yl)-3-methyl-1-oxobutan-2-yl)-2-fluoro-5-(trifluoromethyl)benzamide], for which the IC50 was below 500 nM.

Take `CC(C)[C@@H](NC(=O)c1cc(C(F)(F)F)ccc1F)C(=O)N1CCC2(CC1)C(=O)N(C)C(=O)N2Cc1ccc2nccnc2c1` [Example 100, (R)-2-Fluoro-N-(3-methyl-1-(3-methyl-2,4-dioxo-1-(quinoxalin-6-ylmethyl)-1,3,8-triazaspiro[4.5]decan-8-yl)-1-oxobutan-2-yl)-5-(trifluoromethyl)benzamide]: the 50% inhibitory concentration (IC50) was below 500 nM.

`CC(C)[C@@H](NC(=O)c1cc(C(F)(F)F)ccc1F)C(=O)N1CCC2(CC1)C(=O)N(C)C(=O)N2Cc1cccc(C#N)c1` [Example 101, (R)—N-(1-(1-(3-Cyanobenzyl)-3-methyl-2,4-dioxo-1,3,8-triazaspiro[4.5]decan-8-yl)-3-methyl-1-oxobutan-2-yl)-2-fluoro-5-(trifluoromethyl)benzamide]: the IC50 is below 500 nM.

`CC(C)[C@@H](NC(=O)c1cc(C(F)(F)F)ccc1F)C(=O)N1CCC2(CC1)C(=O)N(C)C(=O)N2Cc1ccn2ccnc2c1` [Example 102, (R)-2-Fluoro-N-(1-(1-(imidazo[1,2-a]pyridin-7-ylmethyl)-3-methyl-2,4-dioxo-1,3,8-triazaspiro[4.5]decan-8-yl)-3-methyl-1-oxobutan-2-yl)-5-(trifluoromethyl)benzamide]: the IC50 is 500 to 1000 nM.

`CC(C)[C@@H](NC(=O)c1cc(C(F)(F)F)ccc1F)C(=O)N1CCC2(CC1)C(=O)N(C)C(=O)N2Cc1cccc(S(C)(=O)=O)c1` [Example 103, (R)-2-Fluoro-N-(3-methyl-1-(3-methyl-1-(3-(methylsulfonyl)benzyl)-2,4-dioxo-1,3,8-triazaspiro[4.5]decan-8-yl)-1-oxobutan-2-yl)-5-(trifluoromethyl)benzamide]: the IC50 was 500 to 1000 nM.

Consider `CC(C)[C@@H](NC(=O)c1cc(C(F)(F)F)ccc1F)C(=O)N1CCC2(CC1)C(=O)N(C)C(=O)N2Cc1cccc(Cl)c1` [Example 104, (R)—N-(1-(1-(3-Chlorobenzyl)-3-methyl-2,4-dioxo-1,3,8-triazaspiro[4.5]decan-8-yl)-3-methyl-1-oxobutan-2-yl)-2-fluoro-5-(trifluoromethyl)benzamide], for which the IC50 is below 500 nM.

`CC(C)[C@@H](NC(=O)c1cc(C(F)(F)F)ccc1F)C(=O)N1CCC2(CC1)C(=O)N(C)C(=O)N2Cc1ccc2oc(=O)n(C)c2c1` [Example 105, (R)-2-Fluoro-N-(3-methyl-1-(3-methyl-1-((3-methyl-2-oxo-2,3-dihydrobenzo[d]oxazol-5-yl)methyl)-2,4-dioxo-1,3,8-triazaspiro[4.5]decan-8-yl)-1-oxobutan-2-yl)-5-(trifluoromethyl)benzamide]: the IC50 was below 500 nM.

As for `Cc1nc2ccc(CN3C(=O)N(C)C(=O)C34CCN(C(=O)[C@H](NC(=O)c3cc(C(F)(F)F)ccc3F)C(C)C)CC4)cc2[nH]1` [Example 106, (R)-2-Fluoro-N-(3-methyl-1-(3-methyl-1-((2-methyl-1H-benzo[d]imidazol-6-yl)methyl)-2,4-dioxo-1,3,8-triazaspiro[4.5]decan-8-yl)-1-oxobutan-2-yl)-5-(trifluoromethyl)benzamide], the concentration for half-maximal inhibition (IC50) was at least 1000 nM.

As to `COc1ccc(F)c(CN2C(=O)N(C)C(=O)C23CCN(C(=O)[C@H](NC(=O)c2cc(C(F)(F)F)ccc2F)C(C)C)CC3)c1` [Example 107, (R)-2-Fluoro-N-(1-(1-(2-fluoro-5-methoxybenzyl)-3-methyl-2,4-dioxo-1,3,8-triazaspiro[4.5]decan-8-yl)-3-methyl-1-oxobutan-2-yl)-5-(trifluoromethyl)benzamide], the half-maximal inhibitory concentration (IC50) is below 500 nM.
